Target: 20S proteasome (Homo sapiens, UniProt P28074)
Assay: 20S proteasome chymotrypsin-like activity assay, cleavage of suc-leu-leu-val-tyr-AMC (fluorescence), with or without copper chloride
Type: biochemical
Conditions: one-dose experiments, 10 μM compound in the presence of 1 μM copper
Text: Pro-drug compounds, according to embodiments of the invention, include: 3,4-dihydroxybenzoic acid; galloflavin; 2-{[(carbamoylsulfanyl)acetyl]amino}benzoic acid; 6,7-Dihydroxycoumaranone; 3,6-bis(hydroxymethyl)pyridazin-4(1H)-one; and 4′,5,7-trihydroxyisoflavone, as shown in FIG. 1. These compounds, and analogs thereof, can act individually or can be used in combination. These compounds, and similar compounds, are capable of binding copper ions and facilitating inhibition of the proteasome. These compounds, and similar compounds, are safe and efficacious theranostics and/or drugs to detect and/or treat cancers. These compounds are from the NCI Diversity Set 3. Preliminary identification of these compounds as potential Cu-complexes with the proteasome was conducted using an in silico screening method, according to an embodiment of the invention, for example, with graphic representations of the calculated docking of the pro-drugs of FIG. 1 with copper ion and the proteasome, as shown in FIGS. 2-7. The modeling method indicates the potential of candidates as the pro-drugs, which are tested experimentally to confirm their efficiency using an in vitro experimental assay that tests for inhibition of the chymotrypsin-like activity of the 20S proteasome.
A Beckman Coulter Biomek FX^P Lab Automation Workstation was used for automating the assays. A Perkin Elmer EnVision 2102 multilabel plate reader was used to read the plates by fluorescence measurements. Assays were performed in 384 well black Nunc plates. Each compound (2 μl in DMSO), when tested without copper chloride was added to 28 μl of buffer (50 mM Tris at pH 7.6 and 37° C.), with 20 μM, 10 μl 20S proteasome and 10 μl of suc-leu-leu-val-tyr-AMC as the substrate (purchased from Boston Biochem), and the rate of substrate cleavage by 20S proteasome activity was determined. In the presence of copper, the buffer amount was decreased to 25 μl and 3 μl copper chloride was used for chelation with the compound for testing in the presence of copper. To allow chelation of copper to the compound, the plate was allowed to sit for 40 minutes with gentle shaking. The overall volume per well was held at 50 μL. The compounds and substrate were initially dissolved in 100% DMSO, but the final concentration of DMSO per well plate was reduced to less than 2% following subsequent dilutions. Plates were incubated at 37° C. for 2 hours. For dose response curves, the concentrations of copper chloride and a pro-drug compound, were varied to get optimal activity. The plates were read with 340 nm excitation and 460 nm emission using the plate reader. All liquid transfers to the plates were automated using the Biomek workstation.

## O=c1oc2c(cc1O)oc(=O)c1cc(O)c(O)c(O)c12 [compound 107022, galloflavin]
  inhibition against the proteasome: superior inhibition

## O=c1cc(CO)[nH]nc1CO [compound 166900, 3,6-bis(hydroxymethyl)pyridazin-4(1H)-one]
  inhibition against the proteasome: superior inhibition

— patent publication US20160287554A1, “Small Molecule Metal-Activated Protein Inhibition” (University of South Florida, priority 2015, published 2016)
